Experimental findings from patent EP0104572A1, “Benzyl ethers of phenol Mannich bases, process for their production, their use and pharmaceutical preparations based on these compounds, intermediates and process for their production” (priority 1982, dated 1984) are described below.

Structures are written as SMILES. Read-outs that look alike come from different tables or passages of the source.

For data set [1], the system named is Serum-Lipoproteine. Description: Change of serum and lipoprotein-fraction cholesterol in rats after 7 days of oral treatment (ultracentrifuge fractionation, CHOD-PAP cholesterol). The format is in vivo, männlichen Wistar-Ratten. The following applies: for change in vivo at 3 mg/kg / change in vivo at 10 mg/kg / change in vivo at 30 mg/kg / change in vivo at 1 mg/kg / change in vivo at 100 mg/kg: Rattus norvegicus, 168 h, oral (gavage), 7 days, male Wistar rats; for change in vivo at 3 mg/kg: 3 mg/kg / Tag; for change in vivo at 10 mg/kg: 10 mg/kg / Tag; for change in vivo at 30 mg/kg: 30 mg/kg / Tag; for change in vivo at 1 mg/kg: 1 mg/kg / Tag; for change in vivo at 100 mg/kg: 100 mg/kg / Tag. The text has this: (§1) Die Wirkung der angeführten Verbindungen auf die Serum- Lipoproteine wurde an männlichen Wistar-Ratten untersucht, die 7 Tage per Schlundsonde mit den angeführten in Polyäthylenglykol 400 suspendierten Verbindungen behandelt wurden. Außerdem wurde eine Kontrollgruppe, die nur das Lösungsmittel Polyäthylenglykol 400 erhielt, mitgeführt, sowie bei den meisten Versuchen eine Ratten-Gruppe mit dem Standardhypolipidämikum Clofibrat. Pro Gruppe wurden in der Regel 10 Tiere eingesetzt, denen am Ende der Behandlung das Blut nach leichter Äthernarkose aus dem Orbitalplexus entnommen wurde. Aus dem gewonnenen Ratten-Serum wurden die Serum- Lipoproteine in der präparativen Ultrazentrifuge in folgende Dichteklassen getrennt: VLDL < 1,006; LDL 1,006 bis 1,04; HDL 1,04 bis 1,21
Da nämlich im Gegensatz zum Menschen die Serumlipoproteine der Ratte etwa 4/5 HDL-Cholesterin und nur 1/5 LDL-Cholesterin enthalten und nur sehr geringe Mengen von VLDL (beim Menschen umgekehrt etwa 2/3 LDL und VLDL und nur 1/3 bis 1/4 HDL), macht die Beurteilung einer hypolipidämischen Wir- .kung an der Ratte unbedingt eine Fraktionierung des Ratten-serums in Lipoproteinklassen erforderlich. Eine bloße Erniedrigung des Serum-Total-cholesteringehaltes an der Ratte würde nämlich nur die unerwünschte Erniedrigung der bei der Ratte vorwiegenden antiatherogenen HDL-Klasse anzeigen. Eine erwünschte Erniedrigung von LDL bei gleichzeitiger erwünschter Vermehrung von HDL hätte aber keine (wesentliche) Auswirkung auf den Totalcholesteringehalt des Ratten-Serums.
Aus den in der Ultrazentrifuge isolierten LipoproteinFraktionen wurde das darin enthaltene Cholesterin vollenzymatisch nach der CHOD-PAP-Methode mittels der Testkombination von Boehringer-Mannheim bestimmt und die Werte in µg/ml Serum umgerechnet. In der angeführten Tabelle ist die Veränderung des Lipoprotein-Cholesterins in der behandelten Gruppe gegenüber einer unter gleichen Bedingungen mitgeführten Kontrollgruppe angegeben.
Veränderung in % der Lipoproteine im Ratten-Serum nach siebentägiger oraler Applikation der Verbindungen

Data set [2] in a line: Change of relative liver weight and liver findings in the 7-day oral rat study. The format is in vivo, männlichen Wistar-Ratten. Particulars: for % Veränderung des relativen Lebergewichtes: oral (gavage), 7 days, male Wistar rats.
Source text: Die erfindungsgemäßen Verbindungen haben wertvolle therapeutische Eigenschaften. So erniedrigen sie vor allem die Konzentration von LDL und VLDL, die HDL-Fraktion aber kaum, in vielen Fällen wird diese Fraktion sogar vermehrt. Diese Verbindungen stellen daher einen wesentlichen Fortschritt gegenüber der Vergleichsverbindung Clofibrat dar, wie aus .den nachfolgend beschriebenen Daten ersichtlich ist. Sie können daher zur Prophylaxe und Regression von arteriosklerotischen Veränderungen herangezogen werden, indem sie einen kausalen Risikofaktor ausschalten. Hierzu zählen nicht nur die primären Hyperlidämien, sondern auch gewisse sekundäre Hyperlipidämien wie sie z.B. beim Diabetes vorkommen. […] Die mit einer hypolipidämischen Wirkung verbundene unerwünschte Beeinflussung der Leber zeigt sich auch in sehr starkem Maße bei der in J.Med.Chem. 18 (1975) S. 833-836 beschriebenen Vergleichsverbindung 1-(4-Methylbenzyl)-imidazol. […] Die erfindungsgemäßen Verbindungen zeigen dieses unerwünschte Verhalten nicht.
as §1

Where [3] appears, read: read-out: Cholesterolveränderung in %, bezogen auf die Kontrollgruppe im Serum.
The mark [4] stands for this setting: read-out: Cholesterolveränderung in %, bezogen auf die Kontrollgruppe in den Serum-Lipoprotein-Fraktionen HDL.
Where [5] appears, read: read-out: Cholesterolveränderung in %, bezogen auf die Kontrollgruppe in den Serum-Lipoprotein-Fraktionen LDL.
The mark [6] stands for this setting: read-out: Cholesterolveränderung in %, bezogen auf die Kontrollgruppe in den Serum-Lipoprotein-Fraktionen VLDL.

In the case of `Cc1ccc(Cn2ccnc2)cc1` [1-(4-Methyl-benyl)-imidazol, 1-(4-Methylbenzyl)-imidazol, reference compound], the change in vivo at 3 mg/kg in data set [1] (setting [3]) is 11%; in data set [1] (setting [4]) it was 18%; in data set [1] (setting [5]), -5%; in data set [1] (setting [6]), 10%. The change in vivo at 10 mg/kg was 16% in data set [1] (setting [3]), 22% in data set [1] (setting [4]), -3% in data set [1] (setting [5]) and -23% in data set [1] (setting [6]). For the same molecule, the change in vivo at 30 mg/kg in data set [1] (setting [3]) was -44%; in data set [1] (setting [4]) it was -24%; in data set [1] (setting [5]), -90%; in data set [1] (setting [6]), -100%. For the same molecule, the “unerwünschte Beeinflussung der Leber” value in data set [2] (rat, in vivo) was “massive Hepatomegalie mit massiven Neutralfett- und Cholesterineinlagerungen”.

Consider `Cc1cc(Cn2ccnc2)cc(Cl)c1OCc1ccc(C(=O)C(C)(C)C)cc1` [Beispiel 1, 4-[2-Chlor-4-(-imidazol-1-ylmethyl)-6-methylphenoxymethyl]-phenyl-tert.-butyl-keton], for which the change in vivo at 1 mg/kg is 8% in data set [1] (setting [4]), -40% in data set [1] (setting [5]) and 0% in data set [1] (setting [6]). In addition, the change in vivo at 3 mg/kg was -12% in data set [1] (setting [3]), 3% in data set [1] (setting [4]), -42% in data set [1] (setting [5]) and 0% in data set [1] (setting [6]). The change in vivo at 10 mg/kg in data set [1] (setting [3]) is -17%; in data set [1] (setting [4]) it was -5%; in data set [1] (setting [5]), -52%; in data set [1] (setting [6]), 0%. Further, the “% Veränderung des relativen Lebergewichtes” value is “+4%” in data set [2] (1 mg/kg / Tag) and “+9%” in data set [2] (3 mg/kg / Tag).

Regarding `Cc1cc(Cn2ccnc2)cc(C)c1OCc1ccc(C(O)C(C)(C)C)cc1` (centres unmarked) [Beispiel 2.1], the figures for the change in vivo at 1 mg/kg in data set [1] (setting [4]), in data set [1] (setting [5]) and in data set [1] (setting [6]) were 17%, -53% and 17%, respectively. The change in vivo at 10 mg/kg in data set [1] (setting [3]) was -22%; in data set [1] (setting [5]), -66%; in data set [1] (setting [6]) it was -54%. Moreover, in data set [2] (1 mg/kg / Tag), the “% Veränderung des relativen Lebergewichtes” value is on record as “+11%”.

Take `Cc1cc(Cn2ccnc2)cc(C)c1OCc1ccc(C(=O)C(C)(C)C)cc1` [Beispiel 3, 4-[2,6-Dimethyl-4-(imidazol-1-ylmethyl)-phenoxymethyl]-phenyl-tert.-butyl-keton]: the change in vivo at 1 mg/kg was 5% in data set [1] (setting [4]), -33% in data set [1] (setting [5]) and 30% in data set [1] (setting [6]). Besides, the change in vivo at 3 mg/kg is 2% in data set [1] (setting [4]), -36% in data set [1] (setting [5]) and 17% in data set [1] (setting [6]). Besides, the change in vivo at 10 mg/kg in data set [1] (setting [4]) was 2%; in data set [1] (setting [5]) it was -45%; in data set [1] (setting [6]), -58%. Moreover, the “% Veränderung des relativen Lebergewichtes” value in data set [2] (1 mg/kg / Tag) was -2%; in data set [2] (3 mg/kg / Tag), -4%.

Regarding `Cc1cc(Cn2ccnc2)cc(Cl)c1OCc1ccc(C(O)C(C)(C)C)cc1` (stereo not drawn) [Beispiel 5, α-Tert.-butyl-4-[2-Chlon-6-methyl-4-(imidazol-1-ylmekthyl)-phenoxymethyl]-benzylalkohol], the change in vivo at 1 mg/kg in data set [1] (setting [5]) was -39%; in data set [1] (setting [6]), -13%. Besides, the change in vivo at 3 mg/kg is 18% in data set [1] (setting [4]), -47% in data set [1] (setting [5]) and -10% in data set [1] (setting [6]). The figures for the change in vivo at 10 mg/kg in data set [1] (setting [3]), in data set [1] (setting [5]) and in data set [1] (setting [6]) were -23%, -59% and -46%, respectively. For the same molecule, the “% Veränderung des relativen Lebergewichtes” value in data set [2] (3 mg/kg / Tag) is “+13%”.

Regarding `CCOC(=O)C(C)(C)Oc1ccc(Cl)cc1` [Clofibrat, reference compound], the change in vivo at 100 mg/kg was -29% in data set [1] (setting [3]), -34% in data set [1] (setting [4]), -18% in data set [1] (setting [5]) and -48% in data set [1] (setting [6]). Moreover, the “Wirkung auf die Lipoproteinfraktionen (VLDL, LDL, HDL)” value in data set [1] (statement in words summarising the table, rat serum, 7 days oral) is given as “stärkere Verminderung der HDL- als der LDL-Fraktion”. The “relatives Lebergewicht” value in data set [2] (rat, in vivo) is listed as “starken Erhöhung des relativen Lebergewichts”.
